# Test system: not listed separately
# Test: Cytotoxicity against human MDA-MB-435 cells assessed as growth inhibition after 48 hrs by MTT assay
# Type: functional
# Conditions: MDA-MB-435, 48 h
row,SMILES,GI50
1,C[C@H]1NC(c2ccc(Br)cc2)=Nc2nc3ccccn3c2C1=O,> 100 µM
2,Cc1ccccc1C1=Nc2nc3ccccn3c2C(=O)[C@H](C)N1,> 10 µM
3,COc1ccc(C2=Nc3nc4ccccn4c3C(=O)[C@H](C)N2)cc1OC,> 10 µM
4,C[C@@H]1NC(c2ccc(C#N)cc2)=Nc2nc3ccccn3c2C1=O,> 10 µM
5,C[C@@H]1NC(c2ccc(-c3ccccc3)cc2)=Nc2nc3ccccn3c2C1=O,40 µM
6,C[C@H]1C(=O)c2c(nc3ccccn23)N=C(c2ccc(Br)cc2)N1C,> 10 µM
7,C[C@@H]1NC(c2ccccc2Br)=Nc2nc3ccccn3c2C1=O,8.35 µM
8,O=C1CNC(c2ccc(Br)cc2)=Nc2nc3ccccn3c21,> 10 µM
9,C[C@@H]1NC(c2ccc(C(F)(F)F)cc2)=Nc2nc3ccccn3c2C1=O,> 10 µM
10,CC[C@@H]1NC(c2ccc(Br)cc2)=Nc2nc3ccccn3c2C1=O,1 µM
11,NCCCC[C@@H]1NC(c2ccc(Br)cc2)=Nc2nc3ccccn3c2C1=O,> 10 µM
12,O=C(NCCCC[C@@H]1NC(c2ccc(Br)cc2)=Nc2nc3ccccn3c2C1=O)OCc1ccccc1,> 10 µM
13,CC(=O)Nc1ccc(C2=Nc3nc4ccccn4c3C(=O)[C@H](C)N2)cc1,10 to 100 µM
14,C[C@@H]1NC(c2cccc(Cl)c2)=Nc2nc3ccccn3c2C1=O,10 µM
15,C[C@@H]1NC(c2ccc(Br)cc2)=Nc2nc3ccccn3c2[C@H]1O,> 10 µM
16,CNC(=O)c1ccc(C2=Nc3nc4ccccn4c3C(=O)[C@H](C)N2)cc1,> 10 µM
17,C[C@@H]1NC(c2ccc(F)cc2)=Nc2nc3ccccn3c2C1=O,> 10 µM
18,C[C@@H]1NC(c2cccc(Br)c2)=Nc2nc3ccccn3c2C1=O,> 10 µM
19,C[C@@H]1NC(c2ccc(Cl)c(C(F)(F)F)c2)=Nc2nc3ccccn3c2C1=O,> 10 µM
20,C[C@@H]1NC(c2ccc(I)cc2)=Nc2nc3ccccn3c2C1=O,1.35 µM
21,CCOC(=O)c1ccc(C2=Nc3nc4ccccn4c3C(=O)[C@H](C)N2)cc1,> 10 µM
22,CC(C)[C@@H]1NC(c2ccc(Br)cc2)=Nc2nc3ccccn3c2C1=O,50 µM
23,C[C@@H]1NC(c2cccc3ccccc23)=Nc2nc3ccccn3c2C1=O,1.4 µM
24,C[C@@H]1NC(c2ccccc2Cl)=Nc2nc3ccccn3c2C1=O,6.5 µM
25,O=C1c2c(nc3ccccn23)N=C(c2ccc(Br)cc2)N[C@H]1CO,0.95 to 1 µM

# Target: Mitogen-activated protein kinase kinase kinase kinase 4 (Homo sapiens, UniProt O95819)
# Test: Inhibition of recombinant human HGK using Ulight-FLGFTYVAP as substrate after 90 mins by LANCE assay
# Conditions: not given
# Sequence of Mitogen-activated protein kinase kinase kinase kinase 4 (O95819 whole entry): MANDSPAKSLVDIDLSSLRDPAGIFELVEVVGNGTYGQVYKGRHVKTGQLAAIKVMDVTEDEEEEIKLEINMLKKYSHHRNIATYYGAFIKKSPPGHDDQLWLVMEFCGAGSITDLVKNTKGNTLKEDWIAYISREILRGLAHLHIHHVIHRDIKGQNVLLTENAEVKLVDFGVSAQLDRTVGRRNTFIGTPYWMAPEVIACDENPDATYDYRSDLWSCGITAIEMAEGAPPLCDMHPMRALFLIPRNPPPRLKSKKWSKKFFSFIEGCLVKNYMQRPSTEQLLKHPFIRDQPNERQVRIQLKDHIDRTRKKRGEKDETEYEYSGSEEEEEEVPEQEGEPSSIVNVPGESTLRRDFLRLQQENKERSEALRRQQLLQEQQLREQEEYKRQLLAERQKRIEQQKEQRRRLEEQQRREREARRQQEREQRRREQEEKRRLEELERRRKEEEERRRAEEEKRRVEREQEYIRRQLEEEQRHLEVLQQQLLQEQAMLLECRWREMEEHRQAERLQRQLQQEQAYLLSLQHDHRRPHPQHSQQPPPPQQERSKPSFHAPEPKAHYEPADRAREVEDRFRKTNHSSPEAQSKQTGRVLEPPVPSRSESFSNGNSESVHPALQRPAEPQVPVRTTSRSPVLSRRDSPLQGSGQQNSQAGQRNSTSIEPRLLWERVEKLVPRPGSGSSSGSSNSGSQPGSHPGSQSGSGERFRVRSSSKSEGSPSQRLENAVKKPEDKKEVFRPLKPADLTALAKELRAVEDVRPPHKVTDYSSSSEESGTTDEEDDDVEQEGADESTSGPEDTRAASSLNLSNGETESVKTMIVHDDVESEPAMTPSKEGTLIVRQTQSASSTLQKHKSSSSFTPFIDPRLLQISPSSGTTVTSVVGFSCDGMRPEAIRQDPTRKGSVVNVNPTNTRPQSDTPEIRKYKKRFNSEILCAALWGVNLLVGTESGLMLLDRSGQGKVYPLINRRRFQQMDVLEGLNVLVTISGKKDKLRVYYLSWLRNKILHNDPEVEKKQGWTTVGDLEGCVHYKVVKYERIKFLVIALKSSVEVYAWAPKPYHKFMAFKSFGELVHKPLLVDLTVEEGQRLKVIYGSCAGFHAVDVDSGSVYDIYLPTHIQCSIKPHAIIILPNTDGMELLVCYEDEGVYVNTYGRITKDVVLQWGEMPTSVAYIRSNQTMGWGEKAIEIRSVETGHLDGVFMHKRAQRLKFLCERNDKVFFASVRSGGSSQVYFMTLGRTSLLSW
row,IC50,SMILES
1,> 100 µM,C[C@H]1NC(c2ccc(Br)cc2)=Nc2nc3ccccn3c2C1=O
2,> 100 µM,C[C@@H]1NC(c2ccc(-c3ccccc3)cc2)=Nc2nc3ccccn3c2C1=O
3,> 100 µM,CC(=O)Nc1ccc(C2=Nc3nc4ccccn4c3C(=O)[C@H](C)N2)cc1
4,44 µM,CC(C)[C@@H]1NC(c2ccc(Br)cc2)=Nc2nc3ccccn3c2C1=O

# — ChEMBL document CHEMBL3877299, “Imidazopyridine-fused [1,3]-diazepinones part 2: Structure-activity relationships and antiproliferative activity against melanoma cells” (Eur J Med Chem, 2017)
